In ChEMBL document CHEMBL1201862, “PubChem BioAssay data set” (2004):
Active and inactive are the calls of the source.

How the values were obtained:
[1] = molecular target: T1, Short transient receptor potential channel 4 (Mus musculus, UniProt Q9QUQ5); assay: block of DAMGO-driven TRPC4 calcium entry – cell-based, HEK293 TRPC4/mu-opioid, Fluo-4 calcium, dose response (AID 434942); format: functional;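 note: potency of inhibitors blocking the TRPC4 calcium response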
T1 sequence (Q9QUQ5 whole entry): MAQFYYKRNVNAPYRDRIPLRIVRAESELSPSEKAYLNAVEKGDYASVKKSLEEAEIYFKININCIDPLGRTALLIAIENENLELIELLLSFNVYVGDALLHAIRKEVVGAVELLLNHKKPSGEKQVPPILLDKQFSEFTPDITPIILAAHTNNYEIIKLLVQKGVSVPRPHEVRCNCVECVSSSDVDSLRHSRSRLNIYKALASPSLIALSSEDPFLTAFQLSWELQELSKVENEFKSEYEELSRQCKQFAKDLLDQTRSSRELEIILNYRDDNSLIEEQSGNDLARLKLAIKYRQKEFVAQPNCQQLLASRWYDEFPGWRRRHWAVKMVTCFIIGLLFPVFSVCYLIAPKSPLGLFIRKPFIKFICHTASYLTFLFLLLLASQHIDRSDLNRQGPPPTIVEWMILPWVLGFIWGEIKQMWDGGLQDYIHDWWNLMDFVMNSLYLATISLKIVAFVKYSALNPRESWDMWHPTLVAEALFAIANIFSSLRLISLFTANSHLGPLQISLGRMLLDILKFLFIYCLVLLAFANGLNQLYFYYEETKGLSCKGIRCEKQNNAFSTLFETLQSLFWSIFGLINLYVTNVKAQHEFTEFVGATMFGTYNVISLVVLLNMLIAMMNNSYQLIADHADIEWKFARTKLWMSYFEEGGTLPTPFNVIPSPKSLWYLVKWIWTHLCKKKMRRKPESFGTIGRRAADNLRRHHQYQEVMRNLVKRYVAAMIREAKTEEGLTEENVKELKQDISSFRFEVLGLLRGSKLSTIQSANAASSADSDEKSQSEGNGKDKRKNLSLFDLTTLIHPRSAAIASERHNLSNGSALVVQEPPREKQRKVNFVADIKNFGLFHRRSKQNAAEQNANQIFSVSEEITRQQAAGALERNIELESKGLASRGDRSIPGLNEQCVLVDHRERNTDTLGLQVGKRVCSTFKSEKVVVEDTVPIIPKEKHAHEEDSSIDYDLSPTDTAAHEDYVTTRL

[2] = molecular target: T2, Heat shock factor protein 1 (Mus musculus, UniProt P38532); assay: decrease of HSF1-responsive luciferase luminescence – cell-based, NIH3T3, dose retest, confirmation (AID 2382); format: functional;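 note: NIH3T3 fibroblasts with HSF1-driven luciferase reporter stressed by proteasome inhibitor MG132; luminescence from HSF1-driven luciferase expression after 8 hours of MG132 stress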
T2 sequence (P38532 whole entry): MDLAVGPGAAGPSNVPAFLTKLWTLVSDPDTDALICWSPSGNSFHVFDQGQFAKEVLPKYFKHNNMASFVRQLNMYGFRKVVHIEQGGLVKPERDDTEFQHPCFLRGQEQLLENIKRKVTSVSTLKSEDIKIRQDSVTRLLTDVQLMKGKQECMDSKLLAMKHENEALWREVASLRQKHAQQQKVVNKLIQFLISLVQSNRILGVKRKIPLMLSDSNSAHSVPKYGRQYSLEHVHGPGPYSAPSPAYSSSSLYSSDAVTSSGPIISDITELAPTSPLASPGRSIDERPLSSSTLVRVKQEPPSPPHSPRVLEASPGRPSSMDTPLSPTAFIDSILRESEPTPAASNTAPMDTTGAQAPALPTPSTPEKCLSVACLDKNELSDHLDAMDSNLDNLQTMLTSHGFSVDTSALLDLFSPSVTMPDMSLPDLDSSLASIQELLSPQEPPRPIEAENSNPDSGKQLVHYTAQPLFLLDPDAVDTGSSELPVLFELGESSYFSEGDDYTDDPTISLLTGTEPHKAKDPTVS

[3] = molecular target: T1, Short transient receptor potential channel 4; assay: calcium entry via TRPC4 opening agents – cell-based, HEK293 TRPC4/mu-opioid, Fluo-4 calcium, dose response (AID 434937); format: functional
[4] = molecular target: G-protein coupled receptor 55 (Homo sapiens, UniProt Q9Y2T6); assay: inhibition of LPI-stimulated GPR55 beta-arrestin translocation – imaging, U2OS, beta-arrestin-GFP, LPI agonist, primary screen (AID 2013); format: functional;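 note: antagonist potency measured as reduced agonist-driven arrestin aggregation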
G-protein coupled receptor 55, sequence (Q9Y2T6 whole entry): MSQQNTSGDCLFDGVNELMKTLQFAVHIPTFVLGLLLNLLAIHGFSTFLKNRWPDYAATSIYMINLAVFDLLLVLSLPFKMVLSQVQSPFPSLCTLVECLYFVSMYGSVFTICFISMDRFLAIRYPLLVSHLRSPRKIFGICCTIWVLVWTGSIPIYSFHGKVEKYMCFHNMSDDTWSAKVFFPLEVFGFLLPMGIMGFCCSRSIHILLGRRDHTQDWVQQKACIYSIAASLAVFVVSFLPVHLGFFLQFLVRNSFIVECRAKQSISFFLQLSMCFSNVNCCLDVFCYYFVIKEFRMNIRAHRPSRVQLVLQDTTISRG

[5] = A Cell Based Secondary Assay To Explore Cytotoxicity of Compounds that Sensitize Mycobacterium Tuberculosis to Beta-Lactam Antibiotics.; format: functional
[6] = molecular target: T3, Bcl-2-related protein A1 (Mus musculus, UniProt Q07440); format: functional;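 note: confirmatory dose–response counterscreen on Bfl-1, used to check hits from a UBC13 polyubiquitin inhibitor campaign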
T3 sequence (Q07440 whole entry): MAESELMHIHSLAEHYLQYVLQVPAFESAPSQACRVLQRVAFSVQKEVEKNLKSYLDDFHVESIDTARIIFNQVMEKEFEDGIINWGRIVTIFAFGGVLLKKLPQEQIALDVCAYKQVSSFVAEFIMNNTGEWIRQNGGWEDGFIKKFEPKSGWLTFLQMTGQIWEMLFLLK

[7] = molecular target: T4, Ubiquitin-conjugating enzyme E2 N (Homo sapiens, UniProt P61088); format: functional
T4 sequence (P61088 whole entry): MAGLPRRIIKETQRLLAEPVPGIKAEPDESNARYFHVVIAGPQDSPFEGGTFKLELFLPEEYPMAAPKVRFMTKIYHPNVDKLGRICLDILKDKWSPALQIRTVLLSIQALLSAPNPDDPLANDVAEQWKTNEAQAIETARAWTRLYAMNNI

[8] = tested on: INS1; assay: INS-1E survival protection against cytokine death – cell-based, luminescence, retest, dose response (AID 449756); format: functional; details: Rattus norvegicus;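 note: cell death triggered by IL-1 beta plus TNF-alpha plus IFN-gamma mixture; protective hits raise ATP signal compared with cytokine alone wells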
[9] = molecular target: T4, Ubiquitin-conjugating enzyme E2 N; format: functional; remark: listed apart in the source
[10] = viability of HCT116 lacking mutant beta-catenin – cell-based, human colon tumor, dose response (AID 1045); format: functional;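 note: HCT116 colon tumor cells with beta catenin knocked out; cells exposed to compound for 60 hours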
[11] = viability of PTEN-deleted HCT116 cells – cell-based, HCT116 PTEN knockout, dose response (AID 1047); format: functional;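 note: HCT116 colon tumor cells with PTEN knocked out; cells exposed to compound for 60 hours before readout; potency for loss of cell viability measured by luminescence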
[12] = molecular target: T5, Phosphomannomutase 2 (Homo sapiens, UniProt O15305); assay: Counter screen SAR assay for PMM2 inhibitors via a fluorescence intensity assay. [Related pubchem assays (depositor defined):AID1545, AID1574]
T5 sequence (O15305 whole entry): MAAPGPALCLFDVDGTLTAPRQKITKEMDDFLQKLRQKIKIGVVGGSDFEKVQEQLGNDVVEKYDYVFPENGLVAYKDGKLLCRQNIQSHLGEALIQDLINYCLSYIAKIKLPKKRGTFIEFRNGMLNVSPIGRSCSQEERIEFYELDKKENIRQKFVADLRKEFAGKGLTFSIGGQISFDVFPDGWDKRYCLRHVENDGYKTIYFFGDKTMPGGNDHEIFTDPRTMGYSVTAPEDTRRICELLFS

[13] = molecular target: T6, Mannose-6-phosphate isomerase (Homo sapiens, UniProt P34949); assay: phosphomannose isomerase inhibition – biochemical, fluorescence intensity, confirmation (AID 1535)
T6 sequence (P34949 whole entry): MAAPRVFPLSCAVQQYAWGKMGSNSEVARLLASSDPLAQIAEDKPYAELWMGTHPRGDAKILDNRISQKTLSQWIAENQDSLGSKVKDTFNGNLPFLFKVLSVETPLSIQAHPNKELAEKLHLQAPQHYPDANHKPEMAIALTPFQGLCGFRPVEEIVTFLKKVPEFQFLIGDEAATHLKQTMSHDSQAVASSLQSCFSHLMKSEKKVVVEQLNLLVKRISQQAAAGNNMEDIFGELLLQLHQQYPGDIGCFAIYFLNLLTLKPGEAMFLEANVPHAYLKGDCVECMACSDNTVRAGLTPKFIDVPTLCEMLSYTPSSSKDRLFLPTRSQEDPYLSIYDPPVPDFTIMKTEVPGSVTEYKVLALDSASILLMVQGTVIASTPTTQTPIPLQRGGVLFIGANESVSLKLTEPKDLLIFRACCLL

[14] = molecular target: DNA dC->dU-editing enzyme APOBEC-3G (Homo sapiens, UniProt Q9HC16); assay: Dose Response confirmation of small molecule APOBEC3G DNA Deaminase Inhibitors via a fluorescence-based single-stranded DNA deaminase assay. [Related pubchem assays (depositor defined):AID493012, AID493028]; format: functional
DNA dC->dU-editing enzyme APOBEC-3G, sequence (Q9HC16 whole entry): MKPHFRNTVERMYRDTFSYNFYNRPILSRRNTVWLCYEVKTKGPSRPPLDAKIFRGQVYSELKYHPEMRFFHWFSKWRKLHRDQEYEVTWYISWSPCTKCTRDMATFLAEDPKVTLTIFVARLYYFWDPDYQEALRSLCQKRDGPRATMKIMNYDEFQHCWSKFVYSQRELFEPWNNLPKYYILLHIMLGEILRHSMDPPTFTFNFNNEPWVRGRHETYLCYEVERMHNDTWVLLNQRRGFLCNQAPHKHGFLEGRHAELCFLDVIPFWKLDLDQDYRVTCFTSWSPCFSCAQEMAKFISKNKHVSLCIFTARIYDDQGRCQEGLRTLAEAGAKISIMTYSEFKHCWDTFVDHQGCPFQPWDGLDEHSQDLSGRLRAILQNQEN

[15] = molecular target: DNA dC->dU-editing enzyme APOBEC-3A (Homo sapiens, UniProt P31941); assay: A3A deaminase inhibition for selectivity – biochemical, dose response (AID 504722); format: functional
DNA dC->dU-editing enzyme APOBEC-3A, sequence (P31941 whole entry): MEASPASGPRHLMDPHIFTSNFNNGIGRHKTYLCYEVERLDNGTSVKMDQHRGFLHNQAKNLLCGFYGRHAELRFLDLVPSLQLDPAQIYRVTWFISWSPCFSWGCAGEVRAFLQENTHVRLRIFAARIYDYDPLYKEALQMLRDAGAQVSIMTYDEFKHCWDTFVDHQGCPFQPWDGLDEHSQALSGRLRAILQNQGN

[16] = molecular target: Large T antigen (Simian virus 40, UniProt P03070); format: functional, Betapolyomavirus macacae;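 note: Confirmatory-stage PubChem screen for compounds that inhibit SV40 T antigen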
Large T antigen, sequence (P03070 whole entry): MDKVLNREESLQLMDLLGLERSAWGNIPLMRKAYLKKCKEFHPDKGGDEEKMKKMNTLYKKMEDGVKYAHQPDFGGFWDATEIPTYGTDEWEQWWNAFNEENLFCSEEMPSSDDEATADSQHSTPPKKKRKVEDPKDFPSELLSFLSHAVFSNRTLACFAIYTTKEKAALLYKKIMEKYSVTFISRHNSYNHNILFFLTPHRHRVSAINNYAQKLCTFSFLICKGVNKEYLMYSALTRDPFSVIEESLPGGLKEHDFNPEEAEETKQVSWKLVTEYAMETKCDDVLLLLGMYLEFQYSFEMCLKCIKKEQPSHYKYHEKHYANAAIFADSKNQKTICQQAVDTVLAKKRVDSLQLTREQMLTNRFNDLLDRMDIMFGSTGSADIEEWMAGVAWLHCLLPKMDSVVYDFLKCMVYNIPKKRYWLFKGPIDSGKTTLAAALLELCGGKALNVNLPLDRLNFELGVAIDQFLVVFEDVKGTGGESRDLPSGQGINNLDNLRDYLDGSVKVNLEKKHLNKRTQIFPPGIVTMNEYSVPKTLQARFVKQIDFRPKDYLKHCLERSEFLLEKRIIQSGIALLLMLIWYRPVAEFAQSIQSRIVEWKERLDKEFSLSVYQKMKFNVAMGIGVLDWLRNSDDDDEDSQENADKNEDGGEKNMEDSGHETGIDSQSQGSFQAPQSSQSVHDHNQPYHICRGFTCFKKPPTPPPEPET

[17] = molecular target: T7, Coagulation factor XII (Homo sapiens, UniProt P00748); format: functional;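 note: activated factor XIIa alpha cleaving a fluorogenic AMC peptide substrate; inhibitor potency from loss of enzyme activity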
T7 sequence (P00748 whole entry): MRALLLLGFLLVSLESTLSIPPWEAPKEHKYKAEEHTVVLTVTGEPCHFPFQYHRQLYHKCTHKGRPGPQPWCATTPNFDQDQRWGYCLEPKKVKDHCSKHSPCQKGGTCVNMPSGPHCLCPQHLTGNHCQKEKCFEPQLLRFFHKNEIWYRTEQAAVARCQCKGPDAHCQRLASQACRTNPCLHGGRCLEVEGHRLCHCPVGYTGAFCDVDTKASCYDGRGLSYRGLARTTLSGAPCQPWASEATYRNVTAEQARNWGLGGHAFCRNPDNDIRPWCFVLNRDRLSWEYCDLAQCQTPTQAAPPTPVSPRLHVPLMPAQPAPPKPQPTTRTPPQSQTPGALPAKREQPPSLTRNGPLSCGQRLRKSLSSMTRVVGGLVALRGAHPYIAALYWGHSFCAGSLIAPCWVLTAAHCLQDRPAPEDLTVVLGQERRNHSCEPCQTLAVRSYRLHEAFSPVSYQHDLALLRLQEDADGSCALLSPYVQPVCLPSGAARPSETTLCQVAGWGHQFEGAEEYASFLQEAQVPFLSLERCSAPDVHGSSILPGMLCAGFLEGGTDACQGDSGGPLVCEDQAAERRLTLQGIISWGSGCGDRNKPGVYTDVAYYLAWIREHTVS

[18] = molecular target: T8, Rac GTPase-activating protein 1 (Homo sapiens, UniProt Q9H0H5); assay: blockers of MgcRacGAP-driven Rac1 GTP hydrolysis – biochemical, ADP Hunter fluorescence, primary and confirmatory, confirmation (AID 624330); format: functional
T8 sequence (Q9H0H5 whole entry): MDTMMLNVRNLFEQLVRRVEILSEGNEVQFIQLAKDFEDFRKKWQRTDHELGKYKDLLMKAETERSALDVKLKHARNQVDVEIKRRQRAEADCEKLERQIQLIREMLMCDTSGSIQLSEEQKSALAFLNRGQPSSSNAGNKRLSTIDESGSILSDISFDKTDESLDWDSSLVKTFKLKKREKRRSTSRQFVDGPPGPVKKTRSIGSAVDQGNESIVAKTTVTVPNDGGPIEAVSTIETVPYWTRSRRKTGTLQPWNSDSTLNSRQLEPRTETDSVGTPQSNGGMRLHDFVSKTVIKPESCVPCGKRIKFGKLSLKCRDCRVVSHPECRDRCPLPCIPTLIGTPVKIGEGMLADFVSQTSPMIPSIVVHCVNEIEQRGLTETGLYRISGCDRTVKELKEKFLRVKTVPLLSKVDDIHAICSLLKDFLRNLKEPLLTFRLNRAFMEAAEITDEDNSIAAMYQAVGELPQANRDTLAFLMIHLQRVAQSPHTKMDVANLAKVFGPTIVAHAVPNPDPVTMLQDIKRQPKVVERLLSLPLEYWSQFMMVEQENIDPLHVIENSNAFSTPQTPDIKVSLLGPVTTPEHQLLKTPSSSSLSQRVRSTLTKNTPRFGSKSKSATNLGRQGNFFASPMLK

COc1ccc(/C=C/C(=O)Nc2ccccc2C(=O)NCC(c2ccc(OC)cc2)N(C)C)cc1 (stereo unspecified)
EC50 [1]: 0.188 µM (active)
EC50 [2]: > 195 µM (not active)
EC50 [3]: 0.421 µM (active)

CCOC(=O)c1c(NC(=O)C2=C(C)N=C(S)NC2c2ccc(CC)cc2)sc(C)c1C (stereo unspecified)
IC50 [4]: 1.64 µM (active)

COc1ccc(NC(=O)CN2CCN(C3c4ccccc4-c4ccccc43)CC2)c(OC)c1
CC50 [5]: > 40 µM (active)
IC50 [4]: 2.19 µM (active)

CCN1CCN(Cc2ccc(NC(=O)c3cc(NC(=O)c4cncc(-c5ccc(C#N)cc5)c4)cc(OC)c3)cc2C(F)(F)F)CC1
IC50 [6]: 8.76 µM (active)
EC50 [2]: > 195 µM (not active)
IC50 [7]: 6.69 µM (active)
AC50 [8]: 8.2 µM (active)
IC50 [9]: 10.9 µM (active)

COc1ccc(OCC(O)Cn2c(=N)n(Cc3ccccc3)c3ccccc32)cc1 (stereo unspecified)
EC50 [10]: 7.38 µM (active)
EC50 [11]: 7.31 µM (active)
IC50 [4]: 3.61 µM (active)

Cc1c(Cl)cccc1/N=c1\ssnc1Cl
IC50 [12]: > 100 µM (inactive)
IC50 [13]: > 100 µM (inactive)

O=[N+]([O-])c1c(Br)cccc1/N=c1\ssnc1Cl
IC50 [12]: 4.8 µM (active)
IC50 [13]: 7.37 µM (active)

Cc1c(CN2CCC(n3nccc3NC(=O)C3CC3)CC2)[nH]c2ccccc12
EC50 [3]: 0.596 µM (active)

Clc1nss/c1=N\c1cnc2ccccc2c1
IC50 [12]: > 100 µM (inactive)
IC50 [13]: 67.2 µM (active)

COc1cc2c(cc1OC)C(C)N(C(=O)C(NC(=O)c1ccccc1)C(C)C)CC2 (stereo unspecified)
EC50 [3]: 5.96 µM (active)

COc1ccc(/C=N/n2c(S)nnc2-c2cc(C)[nH]n2)cc1
IC50 [14]: 3.83 µM (active)
IC50 [15]: > 100 µM (inactive)

CC(/C=N/n1c(S)nnc1-c1ccncc1)=C\c1ccco1
IC50 [14]: 2.71 µM (active)
IC50 [15]: > 100 µM (inactive)
IC50 [16]: 45 µM (active)

Sc1nnc(-c2ccncc2)n1/N=C/C=C/c1ccco1
IC50 [14]: 2.54 µM (active)
IC50 [17]: 45.3 µM (active)
IC50 [15]: 26.7 µM (active)
IC50 [18]: 81.9 µM (active)
